Measured values as given in patent publication US9920383B2, “Active substances for increasing the stress defense in plants to abiotic stress, and methods of finding them” (Bayer Intellectual Property GMBH, priority 2005, dated 2018).

Tests used:
Test in all cases: Gene expression profiling (maize genome array), heat stress
Assay type in all cases: in vivo, maize cv. Lorenzo
Conditions in all cases: vs unstressed solvent-dressed control
[1] = tested on: Zm.11840.1.A1_at: putative N-carbamyl-L-amino acid amidohydrolase
Protocol: (§1) Maize seeds cv. Lorenzo were dressed as described in example 1 with the compound VIII-3 (=4-cyclopropylaminocarbonyl-N-(2-methoxybenzoyl)benzenesulfonamide) or with solvent. The plants were raised for 10 days in a controlled-environment chamber (conditions: see example 1).
(§2) Thereafter, the plants were exposed to the following stress conditions: • (1) Heat stress: 6 h at 45° C. • (2) Drought stress: 7 days without irrigation, 24° C.
(§3) The control plants of the specific experimental group were kept under the standard conditions described in example 1 (temperature, irrigation).
(§4) After the stress treatment, the leaves of the stressed plants and of the unstressed control plants were harvested, shock-frozen in liquid nitrogen and stored at −80° C. until processed. All experiments were carried out in replications of in each case 2 pots.
(§5) The labeled RNA probes for the DNA chip hybridization were prepared as described in the protocols (Expression Analysis. Technical Manual) from Affymetrix (Affymetrix Inc., 3380 Central Expressway, Santa Clara, Calif., USA). First, total RNA was isolated from in each case 500 mg of the harvested leaves. In each case 10 μg of total RNA were used for the cDNA first- and second-strand synthesis. The cDNA was amplified with T7 polymerase and simultaneously labeled with biotin-UTP. In each case 20 μg of this biotinylated […] were employed for the hybridization of the maize genome array from Affymetrix. This DNA microarray contains DNA sequences whose totality represents 13339 genes. Thereafter, the DNA microarrays were washed in the Affymetrix Fluidics Station, stained with streptavidin/phycoerythrin (Molecular Probes, P/N S-866) and scanned with the appropriate Agilent Laser Scanner (Agilent Gene Array Scanner). The fluorescence data obtained were analyzed using Affymetrix's Microarray Suite 5 software. After the quality assurance had been performed, all DNA chip analyses were stored in a database. To determine relevant expression values (induction factors, repression factors), the absolute expression values of the genes from the respective stress experiments were compared with the values of the respective control experiments (i.e. without abiotic stress and solvent-dressing only), based on the scoring function predetermined by the Affymetrix software. The resulting 4 expression values per gene were averaged by calculating the median value. These median values are shown in the results tables as induction factors. Similarity comparisons of expression profiles of various experiments and cluster analyses were carried out using the “genedata expressionist” software from Genedata (Genedata, Maulbeerstr. 46, CH-4016 Basel, Switzerland).
(§6) The analysis of the expression profiles specifically searched for genes which are induced by the test substances only in conjunction with abiotic stress, but not by the substances or by stress alone. Such genes can be considered as indicators for additional anti-stress effects of the substances which exceed the known safener effect. The induction patterns of the indicator genes described permit the targeted finding of active substances for increasing the abiotic stress tolerance in crop plants. • a) Under heat stress conditions, i.e. the tested maize plants (dressed with 2 mg a.i. 4-cyclopropylaminocarbonyl-N-(2-methoxybenzoyl)benzenesulfonamide/g seeds) were exposed to a temperature of 45° C. for 6 hours 7 days after germination.
(§7) • Condition A: heat stress (6 hours, 45° C.) • Condition B: Seeds dressed with 4-cyclopropylaminocarbonyl-N-(2-methoxybenzoyl)benzenesulfonamide (VIII-3)/NO heat stress • Condition C: Seeds dressed with 4-cyclopropylaminocarbonyl-N-(2-methoxybenzoyl)benzenesulfonamide (VIII-3)+heat stress (6 hours, 45° C.).

[2] = tested on: Zm.13498.1.S1_at: membrane protein
Protocol: as §1, §2, §3, §4, §5, §6, §7

[3] = tested on: Zm18994.2.A1_at: putative serine transferase
Protocol: as §1, §2, §3, §4, §5, §6, §7

[4] = seeds dressed with VIII-3 (2 mg a.i./g seeds), NO heat stress
[5] = seeds dressed with VIII-3 + heat stress (6 hours, 45° C.)

COc1ccccc1C(=O)NS(=O)(=O)c1ccc(C(=O)NC2CC2)cc1 [VIII-3, 4-cyclopropylaminocarbonyl-N-(2-methoxybenzoyl)benzenesulfonamide]
induction factor Zm.11840.1.A1_at, Condition B [1, 4]: 1.75
induction factor Zm.11840.1.A1_at, Condition C [1, 5]: 4.10
induction factor Zm.13498.1.S1_at, Condition B [2, 4]: 1.73
induction factor Zm.13498.1.S1_at, Condition C [2, 5]: 4.45
induction factor Zm18994.2.A1_at, Condition B [3, 4]: 1.46
induction factor Zm18994.2.A1_at, Condition C [3, 5]: 2.66
